# Measurements from patent EP2792360A1, “(1aR,12bS)-8-cyclohexyl-11-fluoro-N-((1-methylcyclopropyl)sulfonyl)-1a-((3-methyl-3,8-diazabicyclo[3.2.1]oct-8-yl)carbonyl)-1,1a,2,2b-tetrahydrocyclopropa[d]indolo[2,1-a][2]benzazepine-5-carboxamide for use in treating HCV” (IP Gesellschaft für Management mbH, priority 2013, dated 2014).
# Entries after “also recorded” stand apart in the source; their conditions may differ. Structures can show the parent of a compound that is named as a salt. Where two headings read alike, the source gives them in different places.
# Columns and labels:
# [1] = Relative stability (non-competitive and competitive interconversion) experiments of crystal forms of Compound 1; details: pXRD, DSC, 1H-NMR
# Method: For the non-competitive experiments, only a single starting crystal form was used to study the potential conversion to another more stabb form. […] The slurry was cooled to 25-30 °C, filtered, suction dried for 1 hour and dried in a vacuum oven at 70 °C and 8 kPa absolute pressure for 12 hours. […] The slurry was cooled to 25-30 °C, filtered, suction dried for 1 hour and dried in a vacuum oven at 70 °C and 8 kPa absolute pressure for 12 hours. […] The slurry was cooled to 25-30 °C, filtered, suction dried for 1 hour and dried in a vacuum oven at 70 °C and 8 kPa absolute pressure for 12 hours.
# [2] = Solid form stability of forms of compound of formula (IV) (Temperature / Humidity Controlled XRPD, storage, suspension); type: physicochemical
# Method: The term"XRPD" denotes the analytical method of X-Ray Powder Diffraction. XRPD patterns were recorded at ambient conditions in transmission geometry with a STOE STADI P diffractometer (Cu K alpha radiation source, primary monochromator, position sensitive detector, angular range 3° to 42° 2Theta, approximately 60 minutes total measurement time). The repeatability of the angular values is in the range of 2Theta ±0.2°. The term "approximately" given in combination with an angular value denotes the repeatability which is in the range of 2Theta ±0.2°. The samples were prepared and analyzed without further processing (e.g. grinding or sieving) of the substance. The relative XRPD peak intensity is dependent upon many factors such as structure factor, temperature factor, crystallinity, polarization factor, multiplicity, and Lorentz factor. Relative intensities may vary considerably from one measurement to another due to preferred orientation effects. Humidity Controlled XRPD analyses were performed in reflection geometry with a Siemens D5000 Diffractometer (Cu radiation source, Ni K beta filter, Scintillation detector, angular range 3° to 42° 2Theta, approximately 180 minutes total measurement time per humidity level). The diffractometer is equipped with an MRI (Materials Research Instruments) humidity chamber. The humidity within the chamber is adjusted with an ANSYCO humidity controller (SYCOS H-HOT). For single crystal structure analysis a single crystal sample was mounted in a nylon loop on a goniometer and measured at ambient conditions. Alternatively, the crystal was cooled in a nitrogen stream during measurement. Data were collected on a GEMINI R Ultra diffractometer from Oxford Diffraction. Cu-radiation of 1.54 A wavelength was used for data collection. Data was processed with the Oxford Diffraction CRYSALIS software. The crystal structure was solved and refined with standard crystallographic software. In this case the program ShelXTL from Bruker AXS (Karlsruhe) was used. The abbreviation "FWHM" denotes the full width at half maximum, which is a width of a peak (e.g. appearing in a spectrum, particularly in an XRPD pattern) at its half height. The term "sharp Bragg diffraction peak" in connection with X-ray diffraction patterns denotes a peak which is observed if Bragg' s law of diffraction is fulfilled. Generally, the FWHM of a sharp Bragg diffraction peak is less than 0.5° 2-theta. The term "amorphous halo" in connection with X-ray diffraction patterns denotes an approximately bell- shaped diffraction maximum in the X-ray powder diffraction pattern of an amorphous material. The FWHM of an amorphous halo is on principle larger than the FWHM of the peak of crystalline material. The terms "FTIR" and "IR" denote the analytical method of infrared spectroscopy. The IR-spectra of the samples are recorded as film of a Nujol suspension consisting of approx. 5 mg of sample and approx. 5 mg of Nujol (mineral oil) between two sodium chloride plates (cross section 13 mm) in transmittance with a FTIR- spectrometer. The spectra were recorded in spectral range between 4000 cm"1 and 600 cm"1, resolution 2 cm"1, and 300 coadded scans on a Magna 860 (thermo/Nicolet) equipped with a DTGS detector. The term "Raman" denotes the analytical method of Raman spectroscopy. For recording Raman spectra, the samples were spread on a glass slide. Raman spectra were recorded in the range of 150-3800 cm"1 with an ARAMIS (HoribaJobinYvon) Raman microscope equipped with a Peltier cooled CCD detector, at excitation of 633 nm, a 1200 1/mm grating, a x50 objective and with 3 exposures of 3s, or 7s for weak Raman scatterers. The term "DSC" denotes the analytical method of Differential Scanning Calorimetry. DSC thermograms were recorded using a Mettler-Toledo™ differential scanning calorimeter DSC820, DSC821 or DSC1 with a FRS05 sensor. […]
# [3] = VT-XRPD / VH-XRPD / drying stability of HCl salt forms of Formula V; details: for stability of the salt form on drying under vacuum at room temperature: ca. 16 hours, XRPD
# Method: The humidity was controlled by mixing streams of dry and wet nitrogen, with a total flow rate of 200 mL.min-1 The relative humidity was measured by a calibrated Rotronic probe (dynamic range of 1.0 - 100%RH), located near the sample. The weight change (mass relaxation) of the sample as a function of %RH was constantly monitored by the microbalance (accuracy ±0.005 mg). Approximately 5 - 20 mg of sample was placed in a tared mesh stainless steel basket under ambient conditions. […] A moisture sorption isotherm was performed as outlined below (2 scans giving 1 complete cycle). […] Data analysis was undertaken in Microsoft Excel using DVS Analysis Suite v6.0.0.7. […] XRPD: X-Ray Powder Diffraction patterns were collected either on a Bruker AXS C2 GADDS diffractometer or a Bruker AXS D8 diffractometer. […] The beam divergence, i.e. the effective size of the X-ray beam on the sample, was approximately 4 mm. […] In a typical experiment, the sampleis exposed to the X-ray beam for 120 seconds. The software used for data collectionwas GADDS for WNT 4.1.16 and the data were analyzed and presented using Diffrac PlusEVA vl 1.0.0.2 or vl3.0.0.2. Ambient conditions: Samples run under ambient conditions were prepared as flat plate specimens using powder as received without grinding. Approximately 1 - 2 mg of the sample was lightly pressed on aglass slide to obtain a flat surface. Non-ambient conditions: Samples run under non-ambient conditions were mounted on a silicon wafer with heat-conducting compound. The sample was then heated to the appropriate temperatureat 10.C.min_1and subsequently held isothermally for 1 minute before data collection was initiated. On a Bruker D8 diffractometer, the following parameters were used: Cu Ka radiation (40 kV, 40 mA), θ - 20 goniometer, and divergence of V4 and receiving slits, a Ge monochromator and a Lynxeye detector. […] The software used for data collection was Diffrac Plus XRD Commander v2.5.0 and the data were analyzed and presented using Diffrac Plus EVA vl 1.0.0.2 or vl3.0.0.2. Samples were run under ambient conditions as flat plate specimens using powder as received. The sample was gently packed into a cavity cut into polished, zero-background (510) silicon wafer. The sample was rotated in its own plane during analysis. The details of the data collection are: · Angular range: 2 to 42°2Θ, · Step size: 0.05°2Θ, · Collection time: 0.5 s/step.
# [4] = Characterization of scale-up HCl Pattern 2 (Tables 16-17); type: physicochemical; details: for TGA heat / cool experiments: IC / TGA heat / cool experiments: XRPD: cooled and re-analysed; for solubility thermodynamic: thermodynamic from solid
# [5] = Polymorphism assessment of HCl Pattern 2 (heat/cool cycles in solvents, XRPD); type: physicochemical
# Source text: . […] Table 18. Results from the polymorph assessment
# [6] = Gravimetric vapour sorption (GVS) of salts of Formula V; type: physicochemical
# [7] = Salt form assessment of the tosylate salt (chemical stability, disassociation, aqueous solubility); type: physicochemical
# [8] = non-competitive, refluxed in deionized water at about 95 °C for 3 hours, TGA
compound,measurement,setting,value
"COc1ccc(Cl)c(S(=O)(=O)NC(=O)c2cn3cc(C(F)(F)F)cc(Cl)c3n2)c1 [Form B ({drug1b}), 8-chloro-N-[(2-chloro-5-methoxyphenyl)sulfonyl]-6-(trifluoromethyl)-imidazo[1,2-a]pyridine-2-carboxamide]",crystal form of the resulting material,[1]; [8],Form A
"COc1ccc(Cl)c(S(=O)(=O)NC(=O)c2cn3cc(C(F)(F)F)cc(Cl)c3n2)c1 [Form D ({drug1d}), 8-chloro-N-[(2-chloro-5-methoxyphenyl)sulfonyl]-6-(trifluoromethyl)-imidazo[1,2-a]pyridine-2-carboxamide]",crystal form of the resulting material,[1]; [8],Form A
"Cc1onc(-c2ccc(F)cc2)c1COc1ccc(C(=O)N2CCS(=O)(=O)CC2)cn1 [Form E ({drug4e}), (1,1-dioxo-1lambda6-thiomorpholin-4-yl)-{6-[3-(4-fluoro-phenyl)-5-methyl-isoxazol-4-ylmethoxy]-pyridin-3-yl]-methanone]",humidity at which rapid reconversion into Form B is observed,[2],> 5 rH
same,thermodynamic stability of the solid form,[2],only limited stability at ambient conditions
"COc1ccc(Cl)c(S(=O)(=O)NC(=O)c2cn3cc(C(F)(F)F)cc(Cl)c3n2)c1 [Form TS ({drug1e}), 8-chloro-N-[(2-chloro-5-methoxyphenyl)sulfonyl]-6-(trifluoromethyl)-imidazo[1,2-a]pyridine-2-carboxamide]",crystal form of the resulting material,[1]; [8],Form A
"Nc1nc2cc(-c3ccc4ncc(C(=O)N5CCOCC5)n4c3)ccc2o1 [HCl Pattern 1, (6-(2-aminobenzo[d]oxazol-5-yl)imidazo[1,2-a]pyridin-3-yl)(morpholino)methanone]",stability of the salt form on drying under vacuum at room temperature,[3],partially reverted to the free base
"Nc1nc2cc(-c3ccc4ncc(C(=O)N5CCOCC5)n4c3)ccc2o1 [HCl Pattern 2, (6-(2-aminobenzo[d]oxazol-5-yl)imidazo[1,2-a]pyridin-3-yl)(morpholino)methanone]",KF,[4],"15.2 % water,"
same,TGA heat / cool experiments: IC,[4]; Sample heated to 100°C,1.6 eqsCl
same,TGA heat / cool experiments: XRPD,[4]; Sample heated to 100°C,Partially crystalline HCl Pattern 2
same,TGA heat / cool experiments: IC,[4]; Sample heated to 140°C,1.7 eqs Cl
same,TGA heat / cool experiments: XRPD,[4]; Sample heated to 140°C,Partially crystalline HCl Pattern 2
same,TGA heat / cool experiments,[4]; Sample heated to 210°C,"Sample heated to 210°C, decomposition observed"
same,Stability at 40°C/75%RH,"[4]; XRPD, 3 weeks storage",No significant changes observed by XRPD after 3 weeks storage
same,IC,[4]; as determined,1.7 eqs Cl (as determined)
same,KF,[4]; assuming 2 eqs Cl,"corresponding to 4.3 eqs water, assuming 2 eqs Cl"
same,IC,[4]; corrected with 15% w/w water content,2.0 eqs Cl (corrected with 15% w/w water content)
same,TGA Weight loss,"[4]; first step, by 100°C",8%
same,solubility thermodynamic,"[4]; pH 1, simulated gastric fluid, SGF (pH1.0)",2.8 mg/mL
same,XRPD (air dried),[4]; scale-up HCl Pattern 2,New pattern (HCl Pattern 3)
same,XRPD (vacuum dried),[4]; scale-up HCl Pattern 2,"Crystalline. HCl Pattern 2; also recorded: Slight differences compared to HCl Pattern 2, possibly due to differences in crystallinity"
same,TGA Weight loss,"[4]; second step, to 140°C",2.3%
same,solubility thermodynamic,"[4]; simulated gastric fluid, 0.1N HCl (pH 0.9)",3.5 mg/mL
same,solubility thermodynamic,[4]; Water (pH 1.6),1.6 mg/mL
same,TGA Weight loss,"[4]; third step, to 210°C",8.7%
same,VH-XRPD,[3]; between 45 and 80%RH,No change was noted between 45 and 80%RH
same,relative humidity to which the form is stable (VH-XRPD),"[3]; complete conversion to HCl Pattern 3 at 0.5%RH, reverted completely by 45%RH",14 %RH
same,VH-XRPD,"[3]; lowering humidity, below 25%RH to 0.5%RH","The material starts to change below 25%RH, with full conversion to HCl Pattern 3 at 0.5%RH."
same,VH-XRPD,"[3]; raising humidity, 13%RH to 45%RH",At 13%RH the material starts to revert back to HCl Pattern 2 with complete conversion by 45%RH.
same,heating temperature for conversion to a new pattern (VT-XRPD),[3]; reverted to partially crystalline HCl Pattern 2 upon cooling in air,above 80 °C
same,"VT-XRPD Heating to 100°C, then cool",[3]; scale-up HCl Pattern 2,"Conversion to a new pattern at 80 °C (HCl 3), which returns to less crystalline HCl 2 upon cooling."
same,VT-XRPD Heating to 140°C,[3]; scale-up HCl Pattern 2,"Conversion to HCl Pattern 3 at 80 °C that remains unchanged to 120°C, before losing crystallinity at higher temperature"
same,XRPD Result,[5]; Solvent DCM (entry -11),HCl Pattern 2
same,XRPD Result,[5]; Solvent EtOAc (entry -08),HCl Pattern 2
same,XRPD Result,[5]; Solvent EtOH (entry -02),HCl Pattern 2
same,XRPD Result,[5]; Solvent IPA (10% water) (entry -06),HCl Pattern 2
same,XRPD Result,[5]; Solvent IPA (entry -03),HCl Pattern 2
same,XRPD Result,[5]; Solvent MEK (entry -09),HCl Pattern 2
same,XRPD Result,[5]; Solvent MeCN (entry -05),HCl Pattern 2
same,XRPD Result,[5]; Solvent MeOH (entry -01),HCl Pattern 2
same,XRPD Result,[5]; Solvent Nitromethane (entry -12),HCl Pattern 2
same,XRPD Result,[5]; Solvent TBME (entry -10),HCl Pattern 2
same,XRPD Result,[5]; Solvent THF (5% water) (entry -07),HCl Pattern 2
same,XRPD Result,[5]; Solvent THF (entry -04),HCl Pattern 2
same,form by XRPD after polymorph assessment,"[5]; freeze-dried material, 20 vols solvent, heat/cool cycles RT to 50°C for three days",known form HCl Pattern 2
same,uptake at the end of the analysis (GVS),"[6]; 25°C, equating to a tri-hydrate",10.6 wt%
same,GVS: XRPD after the experiment,[6]; at the end of the experiment,no significant changes noted by XRPD
same,GVS,[6]; below 30%RH,Further reversible weight toss below 30%RH may indicate lower stoichiometry hydrate.
same,GVS,[6]; between 30-40%RH,Reversible dehydration observed between 30-40%RH.
same,GVS Reversible uptake,[6]; between 40-90%RH,Reversible uptake of ca. 6 wt% between 40-90%RH.
same,relative humidity to which the form appeared to be stable (GVS),"[6]; dehydration below 30%, rehydration by 40%",30 %RH
"Nc1nc2cc(-c3ccc4ncc(C(=O)N5CCOCC5)n4c3)ccc2o1 [HCl Pattern 3, (6-(2-aminobenzo[d]oxazol-5-yl)imidazo[1,2-a]pyridin-3-yl)(morpholino)methanone]",stability of the salt form on drying under vacuum at room temperature,[3],unstable salt form
"COc1ccc(Cl)c(S(=O)(=O)NC(=O)c2cn3cc(C(F)(F)F)cc(Cl)c3n2)c1 [mixed Forms A and B, 8-chloro-N-[(2-chloro-5-methoxyphenyl)sulfonyl]-6-(trifluoromethyl)-imidazo[1,2-a]pyridine-2-carboxamide]",crystal form of the resulting material,[1]; slurry in deionized water stirred at 25 °C for about 168 hours,Form A
"Cc1ccc(S(=O)(=O)O)cc1.Nc1[nH]ncc1-c1cc(Cl)ccc1Oc1cc(F)c(S(=O)(=O)Nc2cscn2)cc1Cl [tosylate salt, 4-[2-(5-amino-1 H-pyrazol-4-yl)-4-chlorophenoxy]-5-chloro-2-fluoro-N-(1,3-thiazol-4-yl)benzenesulfonamide tosylate]",aqueous solubility,[7],good aqueous solubility
same,stability with regard to disassociation,[7]; compared with other salts,greater stability
same,chemical stability,[7]; in particular with regard to formulation and storage,improved chemical stability over the free base
